From patent US20230121313A1 (priority 2019, published 2023)

Tests used:
[1] = system: subjects with MDD at imminent risk for suicide; assay: Beck Hopelessness Scale (BHS), Study […]2001; type: in vivo, human; conditions: 84 mg; for BHS total score change, Diff. of LS Means (minus Placebo): ANCOVA LOCF; for BHS total score, change from baseline, mean / BHS total score, change from baseline, median / BHS total score, mean / BHS total score, median: LOCF, N 35
Description: • a. Changes from baseline to Day 2 and Day 25 for the MADRS total score • b. Changes from baseline to Day 1 4-hours postdose, Day 2 and Day 25 for the MADRS Suicide Item • c. Changes from baseline to Day 1 4-hours postdose, Day 2, and Day 25 for the clinical global judgment of suicide risk from the Suicide Ideation and Behavior Assessment Tool (SIBAT) • d. Sustained response (Onset of Clinical Response) defined as at least 50% reduction from baseline in MADRS total score with onset on Day 1 that is maintained through the end of the double-blind phase (Day 25) • e. Changes from baseline to Day 1 4-hours postdose, Day 2, and Day 25 for the Beck Scale for Suicidal Ideation (BSS) • f. Changes from baseline to Day 1 4-hours postdose and Day 25 for the Beck Hopelessness Scale
The BHS is a self-reported measure to assess one's level of negative expectations or pessimism regarding the future. It consists of 20 true-false items that examine the respondent's attitude over the past week by either endorsing a pessimistic statement or denying an optimistic statement. For every statement, each response is assigned a score of 0 or 1. The total BHS score is a sum of item responses and ranges from 0 to 20, with a higher score representing a higher level of hopelessness.

adult subjects with TRD [2] = conditions: human, in vivo, other: intranasal
Description: The MOAA/S was used to measure treatment-emergent sedation, with correlation to levels of sedation defined by the American Society of Anesthesiologists (ASA) continuum. The MOAA/S scores range from 0=no response to painful stimulus (corresponds to ASA continuum for general anesthesia) to 5=readily responds to name spoken in normal tone (awake; corresponds to ASA continuum for minimal sedation).
On each intranasal dosing day, the MOAA/S was performed every 15 minutes from pre-dose to t=+1.5 hours post-dose. If the score was ≤3 at any time during the 1.5 hours post-dose interval, the MOAA/S was performed every 5 minutes until a score of 4 is reached (at which point a frequency of every 15 minutes can be resumed until t=+1.5 hours post dose). […] For subjects with a score of 4, the assessment was repeated every 15 minutes. […]
The Modified Observer's Assessment of Alertness/Sedation (MOAA/S) was used to measure treatment-emergent sedation with correlation to levels of sedation defined by the American Society of Anesthesiologists (ASA) continuum. The MOAA/S scores ranged from 0 (No response to painful stimulus; corresponds to ASA continuum for general anesthesia) to 5 (Readily responds to name spoken in normal tone [awake]; corresponding to ASA continuum for minimal sedation).

[3] = Description: This example provides an LC-MS/MS method for the determination of ketamine and norketamine in sodium heparin human plasma using ketamine-d4 and norketamine-d4 as the respective internal standards (IS).
Retention time and peak area were determined by Analyst® Data Acquisition/Processing Software (Version 1.4.2). Analyte concentrations were obtained from a calibration curve constructed by plotting the peak area ratio versus the concentration using Watson LIMS (Version 7.3). Watson LIMS and Microsoft Office Excel were used for statistical calculations. When Office Excel was used the calculations were 100% audited. Concentrations were calculated using linear regression according to the following equation: […]
Selectivity is defined as the ability of a chromatographic method to measure a response from the analyte without interference from the biological matrix. This was accomplished by evaluating six individual lots of human plasma prepared as blank and at the lower limit of quantitation (LLOQ, 0.500 ng/mL).
The matrix effect is defined as the suppression or enhancement of ionization of analytes by the presence of matrix components in the biological samples. See, e.g., C. T. Viswanathan, “Quantitative Bioanalytical Methods Validation and Implementation: Best Practices for Chromatographic and Ligand Binding Assays,” Pharmaceutical Research, Vol. 24, No. 10, October 2007, p. 1969. The matrix effect was evaluated by extracting single replicates of six lots of blank human plasma and spiking each lot at the Low and High QC concentration levels (1.50 ng/mL and 375 ng/mL) post extraction. The area ratios of the six lots of post-extraction spiked plasma samples were compared to the mean area ratio obtained from three replicates of the neat solution prepared at the same concentration level in purified water.
The linearity of the method was evaluated at a linear range of 0.500/0.500-500/500 ng/mL for ketamine/norketamine in human plasma. Linear regression (with a weighting factor of 1/x2) was used to produce the best fit for the concentration-detector response relationship for ketamine and norketamine in human plasma.
The validation was conducted with a target LLOQ of 0.500 ng/mL for ketamine and norketamine in human plasma. To evaluate the sensitivity, six QC samples prepared at the LLOQ were analyzed during three individual batch runs as part of the intra-run and inter-run accuracy and precision for the method. The concentrations were calculated with the calibration curve.
The intra-run and inter-run accuracy and precision of the method were investigated at four different QC concentration levels (0.500 ng/mL (LLOQ), 1.50 ng/mL, 80.0 ng/mL, and 375 ng/mL).
Recoveries were calculated according to the following formula: […]
To assess the reinjection reproducibility, an analyte batch containing a standard curve and QC samples was reinjected after being kept at room temperature for 161.5 hours.

[4] = system: subjects with MDD at imminent risk for suicide; conditions: human, in vivo, other: intranasal, 84 mg
Description: The CADSS was measured prior to the start of each dose, at 40 minutes, 2 hours, and 4 hours postdose.

[5] = system: patients with treatment-resistant depression (TRD); assay: BPRS positive symptom subscale, phase 2 dose-response study in TRD; type: in vivo, human
Description: (§1) Adverse events were monitored throughout the study. Other safety assessments (i.e., laboratory tests, vital signs, physical examination) were performed at pre-specified time points. Vital signs, the Clinician Administered Dissociative States Scale (CADSS; Bremner, “Measurement of dissociative states with the clinician-administered dissociative states scale (CADSS)”, J. Traumatic Stress, 1998, 11(1):125-136), and the 4-item positive symptom subscale from the Brief Psychiatric Rating Scale (BPRS; Overall, “The Brief Psychiatric Rating Scale. Psychological Reports”, 1962, 10:799-812) were assessed pre-dose, at 40 minutes, and 2 hours post-dose.

[6] = system: patients with treatment-resistant depression (TRD); assay: CADSS, phase 2 dose-response study in TRD; type: in vivo, human
Description: as §1

adult subjects with TRD [7] = conditions: in vivo
Description: Blood pressure and pulse/heart rate measurements were assessed supine with a completely automated device. Manual techniques were used only if an automated device is not available. Blood pressure and pulse/heart rate measurements were preceded by at least 5 minutes of rest in a quiet setting without distractions (e.g., television, cell phones).
Descriptive statistics of temperature, pulse/heart rate, respiratory rate, pulse oximetry, and blood pressure (systolic and diastolic) (supine) values and changes from baseline were summarized at each scheduled time point. The percentage of subjects with values beyond clinically important limits were summarized.

## CN[C@]1(c2ccccc2Cl)CCCCC1=O [esketamine, (S)-2-(2-chlorophenyl)-2-(methylamino)cyclohexanone]
[1]; Day 1 (DB): 4 H
  BHS total score change, Diff. of LS Means (minus Placebo): −1.5
  BHS total score, change from baseline, mean: −4.1
  BHS total score, change from baseline, median: −2.0
  BHS total score, mean: 12.3
  BHS total score, median: 14.0
[1]; End Point (DB)
  BHS total score change, Diff. of LS Means (minus Placebo): −2.3
  BHS total score, change from baseline, mean: −10.3
  BHS total score, change from baseline, median: −11.0
  BHS total score, mean: 6.2
  BHS total score, median: 4.0
Adult subjects with TRD [2]
  Sedation (MOAA/S) resolved by (postdose): ≤ 1.5 h
[3]; freeze (−20° C.)/thaw (room temperature)
  QC sample freeze/thaw stability: 3 freeze (−20° C.)/thaw (room temperature) cycles
[3]; human plasma QC sample at −20° C.
  QC sample long-term storage stability: 707 days at −20 °C
[3]; human plasma QC sample, room temperature
  QC sample bench-top stability: 18 hours at room temperature
[4]
  CADSS dissociative and perceptual change symptoms resolved by (postdose): ≤ 2 h
[5]
  Symptoms suggestive of psychosis (BPRS-positive assessment): No participant manifested symptoms suggestive of psychosis
[6]
  CADSS perceptual changes/dissociative symptoms resolved by: ≤ 2 h
  CADSS perceptual changes/dissociative symptoms: time of peak: 30 to 40 min
Adult subjects with TRD [7]
  Maximum mean increase in diastolic BP (across all dosing days): 8.1
  Transient blood pressure increases: returned to normal range at: 90 min
  Transient blood pressure increases: time of peak post dose: approximately 40 minutes
